Experimental data as given in patent US11512056B2 (Anhui New Star Pharmaceutical Development Co., Ltd, priority 2018, dated 2022).
“And” between values parts separate entries of the source, which are not always exact repeats. Equal entries are not always repeated.

Tests used:
platelets (rabbit blood) = assay: Inhibition of platelet aggregation in vitro (rabbit blood), ADP-induced, turbidimetric; assay type: cell-based, New Zealand white rabbits; settings: Oryctolagus cuniculus, rabbit PRP, ADP final concentration 10 μM
Source text: Blood was collected from New Zealand white rabbits (body weight 1-1.5 kg). After the animal was anesthetized with 10% chloral hydrate, the animal was placed supinely on the rabbit board, precordial hair was cut off, and the skin was disinfected with iodine and alcohol. Touch with left hand the 3rd to 4th intercostal space on the left edge of the sternum. Chose the most obvious place for the puncture point. Held the syringe in right hand and insert the needle into the chest cavity. Inserted the needle into the heart and then draw out the blood when feel the heart beating through the needle. […] assay system with a total volume of 300 μL, that is, 280 μL of diluted PRP was taken and placed in a turbidimetric tube, and was incubated with 10 μL of drug or solvent control at 37° C. for 5 minutes, and then 10 μL of different inducers such ADP (final concentration 10 μM) were added to determine the maximum platelet aggregation rate within 5 minutes. Repeation was taken at least three times […].
Platelet-rich plasma (PRP) was obtained by centrifuging blood at 1200 rpm for 10 minutes, and platelet aggregation was measured as described above. […] The platelet density in PRP is counted with a hemocytometer and diluted with platelet-poor plasma (PPP). […]

arterial thrombosis = assay: SD male rat arteriovenous short circuit thrombosis model (A-V shunt); assay type: in vivo, male SD rats
Experimental: Cut the surgical wire with a length of 6 cm, weigh and recorded it on an analytical balance (about 2 mg dry weight), and placed it in a thick polyethylene tube with a length of 6 cm. Inserted a thin tube at each end of the thick tube spare. Male SD rats were intragastrically administered for 4 hours, anesthetized with pentobarbital 60 mg/kg, separated the common carotid artery and common jugular vein, connected the arteries and veins with the above polyethylene tube, opened the blood flow for 15 minutes, removed the surgical line and weighed (WW).

human platelets [1] = assay: Thrombin-induced human platelet aggregation (PRP, turbidimetric); assay type: cell-based; settings: for IC50: read-out: IC50 on thrombin-induced platelet aggregation rate
Experimental: Volunteers' whole blood was drawn from venous blood with 1:6 D-citrate ACD (85 mmol/L sodium citrate, 71.38 mmol/L citrate, 27.78 mmol/L glucose) for anticoagulation, and centrifuged at 300 g at room temperature for 10 minutes, platelet rich plasma (PRP) was separated.
(§1) The turbidimetric platelet aggregation test was performed on the Chrono-Log Company's dual-channel optical platelet aggregation instrument. The speed of the icon recorder was set to 1 cm/min, and the aggregation curve was recorded. First, the platelet aggregator was preheated to 37° C., and 400 μL platelet suspension and stir bar were added to the turbidity tube, PPP was used as a reference, and traced the baseline under constant magnetic stirring at 37° C. After the baseline is stable, with the experiment plan, different concentrations of antagonists or other reagents were added to treat platelets for 2 minutes, and then the inducer ADP was added to observe and record changes in the aggregation curve.

human platelets [2] = assay: ADP-induced aggregation of human platelets (PRP, turbidimetric); assay type: cell-based; settings: for IC50: read-out: IC50 of compound on ADP-induced platelet aggregation rate
Experimental: Volunteers' whole blood was drawn from venous blood with 1:6 dextro-citrate ACD (85 mmol/L sodium citrate, 71.38 mmol/L citrate, 27.78 mmol/L glucose) for anticoagulation, and centrifuged at 300 g at room temperature for 10 minutes, platelet rich plasma (PRP) was separated.
as §1, with “C.,” for “C., and”, “tube, use” for “tube,”, “PPP” for “PPP was used”, “baseline was” for “baseline is”, “with” for “with the”

human platelets [3] = assay: Collagen-induced aggregation of human platelets (PRP, turbidimetric); assay type: cell-based
Experimental: Volunteers' whole blood was drawn from venous blood with 1:6 dextro-citrate ACD (85 mmol/L sodium citrate, 71.38 mmol/L citrate, 27.78 mmol/L glucose) for anticoagulation, and centrifuged at 300 g at room temperature for 10 Minutes, separate platelet rich plasma (PRP).
as §1, with “was” for “is”, “antagonist” for “antagonists”, “then” for “then the”, “collagen” for “ADP”
The platelet aggregation rate of the solvent control group was set to be 100%. The inhibitory effects of the compounds on normal human platelet aggregation induced by collagen at different concentrations were as follows: […]

[4] = Homo sapiens, Platelet, column 1
[5] = Homo sapiens, Platelet, column 2
[6] = Homo sapiens, Platelet, column 3

In the case of `CC1CC(=O)NN=C1c1ccc(NC(=N)N)cc1` (stereo not shown) [No. 1, 1-(4-(4-methyl-6-oxo-1,4,5,6-tetrahydropyridazin-3-yl)phenyl)guanidine], the IC50 (platelets (rabbit blood)) is reported as 197 nM, the Thrombus wet weight (arterial thrombosis; 10 mg/kg intragastric, 4 hours before, blood flow 15 minutes, individual values) is reported as 11.7 mg and 11.5 mg and 12.1 mg and the “weight of arterial thrombus in rats” value (arterial thrombosis; intragastric administration) is reported as “significantly reduced”. For the same molecule, the “Aggregation inhibition rate %” value (human platelets [1]; 0.5 U/ml thrombin, concentration 0.01 μM, 0.01 µM) was 2.81%, the “Aggregation inhibition rate %” value (human platelets [1]; 0.5 U/ml thrombin, concentration 0.1 μM, 0.1 µM) was 46.03% and 40.98% and 65.21% and the “Aggregation inhibition rate %” value (human platelets [1]; 0.5 U/ml thrombin, concentration 0.3 μM, 0.3 µM) was 80.95% and 89.85%. For the same molecule, the “Aggregation inhibition rate %” value (human platelets [1]; 0.5 U/ml thrombin, concentration 1 μM, 1 µM) was 95.83% and 97.33%, the inhibition at 0.003 µM (human platelets [1]; Homo sapiens, Platelet, 0.5 U/ml thrombin, concentration 0.003 μM, read-out: Aggregation inhibition rate %) was 0% and the inhibition at 0.01 µM (human platelets [1]; Homo sapiens, Platelet, 0.5 U/ml thrombin, concentration 0.01 μM, read-out: Aggregation inhibition rate %) was 3.08%. The inhibition at 0.3 µM (human platelets [1]; Homo sapiens, Platelet, 0.5 U/ml thrombin, concentration 0.3 μM, read-out: Aggregation inhibition rate %) was 71.4%, the inhibition at 1 µM (human platelets [1]; Homo sapiens, Platelet, 0.5 U/ml thrombin, concentration 1 μM, read-out: Aggregation inhibition rate %) was 85.7% and the inhibition at 3 µM (human platelets [1]; Homo sapiens, Platelet, 0.5 U/ml thrombin, concentration 3 μM, read-out: Aggregation inhibition rate %) was 100%. The inhibition at 10 µM (human platelets [1]; Homo sapiens, Platelet, 0.5 U/ml thrombin, concentration 10 μM, read-out: Aggregation inhibition rate %) was 100%, the inhibition at 20 µM (human platelets [1]; Homo sapiens, Platelet, 0.5 U/ml thrombin, concentration 20 μM, read-out: Aggregation inhibition rate %) was 100% and the IC50 (human platelets [1]; [4]) was 194 nM. The IC50 (human platelets [1]; [5]) was 140 nM, the IC50 (human platelets [1]; [6]) was 78 nM and the “Aggregation inhibition rate %” value (human platelets [2]; 10 μM ADP, concentration 0.03 μM, listed as Compound No.1) was 17.39%. The “Aggregation inhibition rate %” value (human platelets [2]; 10 μM ADP, concentration 0.03 μM, listed as No.1 Compound) was 49.01%, the “Aggregation inhibition rate %” value (human platelets [2]; 10 μM ADP, concentration 0.1 μM) was 37.68% and the “Aggregation inhibition rate %” value (human platelets [2]; 10 μM ADP, concentration 0.3 μM, listed as Compound No.1) was 39.13%. The “Aggregation inhibition rate %” value (human platelets [2]; 10 μM ADP, concentration 0.3 μM, listed as No.1 Compound) was 62.74%, the “Aggregation inhibition rate %” value (human platelets [2]; 10 μM ADP, concentration 1 μM, listed as Compound No.1) was 42.02% and the “Aggregation inhibition rate %” value (human platelets [2]; 10 μM ADP, concentration 1 μM, listed as No.1 Compound) was 66.67%. The “Aggregation inhibition rate %” value (human platelets [2]; 10 μM ADP, concentration 3 μM) was 51.88%, the inhibition at 0.005 µM (human platelets [2]; Homo sapiens, Platelet, 10 μM ADP, concentration 0.005 μM, read-out: Aggregation inhibition rate %) was 2.99% and the inhibition at 0.01 µM (human platelets [2]; Homo sapiens, Platelet, 10 μM ADP, concentration 0.01 μM, read-out: Aggregation inhibition rate %) was 8.69%. For the same molecule, the inhibition at 0.1 µM (human platelets [2]; Homo sapiens, Platelet, 10 μM ADP, concentration 0.1 μM, read-out: Aggregation inhibition rate %) was 43.1%, the inhibition at 3 µM (human platelets [2]; Homo sapiens, Platelet, 10 μM ADP, concentration 3 μM, read-out: Aggregation inhibition rate %) was 71.6% and the inhibition at 5 µM (human platelets [2]; Homo sapiens, Platelet, 10 μM ADP, concentration 5 μM, read-out: Aggregation inhibition rate %) was 81.4%. For the same molecule, the inhibition at 10 µM (human platelets [2]; Homo sapiens, Platelet, 10 μM ADP, concentration 10 μM, read-out: Aggregation inhibition rate %) was 95.1%, the IC50 (human platelets [2]; [4]) was 97 nM and the IC50 (human platelets [2]; [5]) was 1080 nM. The IC50 (human platelets [2]; [6]) was 154 nM, the “inhibitory effect on platelet aggregation induced by collagen” value (human platelets [3]; 1 μg/ml collagen) was “significant inhibitory effect” and the “Aggregation inhibition rate %” value (human platelets [3]; 1 μg/ml collagen, concentration 0.01 μM, 0.01 µM) was 8.96% and 10.94%. The “Aggregation inhibition rate %” value (human platelets [3]; 1 μg/ml collagen, concentration 0.3 μM, 0.3 µM) was 79.10% and 44.78% and 54.69%, the “Aggregation inhibition rate %” value (human platelets [3]; 1 μg/ml collagen, concentration 1 μM, 1 µM) was 80.59% and 95.31% and the inhibition at 0.003 µM (human platelets [3]; Homo sapiens, Platelet, 1 μg/ml collagen, concentration 0.003 μM, read-out: Aggregation inhibition rate %) was 5.97%. The inhibition at 0.01 µM (human platelets [3]; Homo sapiens, Platelet, 1 μg/ml collagen, concentration 0.01 μM, read-out: Aggregation inhibition rate %) was 10.4%, the inhibition at 1 µM (human platelets [3]; Homo sapiens, Platelet, 1 μg/ml collagen, concentration 1 μM, read-out: Aggregation inhibition rate %) was 95.9% and the inhibition at 3 µM (human platelets [3]; Homo sapiens, Platelet, 1 μg/ml collagen, concentration 3 μM, read-out: Aggregation inhibition rate %) was 100%. For the same molecule, the IC50 (human platelets [3]; Homo sapiens, Platelet, 1 μg/ml collagen, read-out: IC50 on platelet aggregation induced by collagen) was 157 nM, the IC50 (human platelets [3]; Homo sapiens, Platelet, column 1, read-out: IC50 of compound on collagen-induced platelet aggregation rate) was 95 nM and the IC50 (human platelets [3]; Homo sapiens, Platelet, column 2, read-out: IC50 of compound on collagen-induced platelet aggregation rate) was 233 nM. For the same molecule, the IC50 (human platelets [3]; Homo sapiens, Platelet, column 3, read-out: IC50 of compound on collagen-induced platelet aggregation rate) was 143 nM.
